# Assay results from patent EP2582674B1 (Cymabay Therapeutics, Inc., priority 2010, dated 2011).
# Molecular target: T1, human GPR120 (Homo sapiens, UniProt Q5NUL3)
# T1 construct: host or cells: HEK293 cells co-expressing Gqi5
# T1 sequence (Q5NUL3 1-361): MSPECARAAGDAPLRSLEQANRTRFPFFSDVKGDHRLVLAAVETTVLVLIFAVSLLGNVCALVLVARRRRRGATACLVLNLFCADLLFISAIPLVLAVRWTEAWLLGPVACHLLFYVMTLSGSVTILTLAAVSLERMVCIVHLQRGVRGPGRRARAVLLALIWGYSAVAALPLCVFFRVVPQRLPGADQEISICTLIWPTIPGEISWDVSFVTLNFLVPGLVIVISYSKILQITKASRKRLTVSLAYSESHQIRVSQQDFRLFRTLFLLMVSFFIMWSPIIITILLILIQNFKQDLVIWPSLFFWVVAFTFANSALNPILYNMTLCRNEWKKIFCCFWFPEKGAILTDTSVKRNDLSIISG
# Assay: Intracellular Ca2+ assay in human GPR120 stable cell line (FLIPR Calcium 4 dye, Flexstation)
# Assay type: cell-based
# Details: % activity at 2.5 µM compared to the maximal activity of the compound of Example 25 at 2.5 µM (=100%); HEK293 cells co-expressing Gqi5; read-out: % Activity (Ex. 25 Reference Compound)
row,SMILES,activity at 2.5 µM [%]
1,"CC1(C)Cc2cc(F)cc(CCc3ccc(OCC(=O)O)cc3)c2O1 [Example 70, 2-(4-(2-(5-fluoro-2,2-dimethyl-2,3-dihydrobenzofuran-7-yl)ethyl)phenoxy)acetic acid]",118

# Same assay, conditions: HEK293, % activity at 2.5 µM compared to the maximal activity of the compound of Example 25 at 2.5 µM (=100%); HEK293 cells co-expressing Gqi5; read-out: % Activity (Ex. 25 Reference Compound)
row,SMILES,activity at 2.5 µM [%]
1,"Cc1cc2cc(Cl)cc(COc3ccc(CC(C)C(=O)O)cc3F)c2o1 (stereo not shown) [Example 120, 3-(4-((5-chloro-2-methylbenzofuran-7-yl)methoxy)-3-fluorophenyl)-2-methylpropanoic acid]",104
2,"CC1(C)Cc2cc(F)cc(COc3ccc(CCC(=O)O)c4c3CCC4)c2O1 [Example 63, 3-(7-((5-fluoro-2,2-dimethyl-2,3-dihydrobenzofuran-7-yl)methoxy)-2,3-dihydro-1H-inden-4-yl)propanoic acid]",95
3,"[2H]C([2H])(Oc1ccc(CC(C)C(=O)O)cc1C(F)(F)F)c1cc(F)cc2c1OC(C)(C)C2 (stereo not shown) [Example 231, 3-(4-(dideuterio(5-fluoro-2,2-dimethyl-2,3-dihydrobenzofuran-7-yl)methoxy)-3-(trifluoromethyl)phenyl)-2-methylpropanoic acid]",101
4,"COc1cc(COc2ccc(CC(C)C(=O)O)cc2)c2c(c1)CC(C)(C)O2 (stereo not shown) [Example 108, 3-(4-((5-methoxy-2,2-dimethyl-2,3-dihydrobenzofuran-7-yl)methoxy)phenyl)-2-methylpropanoic acid]",144
5,"CC1(C)Cc2cc(Cl)cc(COc3ccc(C(C)(C)CC(=O)O)cc3)c2O1 [Example 156, 3-(4-((5-chloro-2,2-dimethyl-2,3-dihydrobenzofuran-7-yl)methoxy)phenyl)-3-methylbutanoic acid]",149
6,"CC(Cc1ccc(OCc2cc(Cl)cc3c2OC(C)(C)C3O)c(F)c1)C(=O)O (stereo not shown) [Example 80, 3-(4-((5-chloro-3-hydroxy-2,2-dimethyl-2,3-dihydrobenzofuran-7-yl)methoxy)-3-fluorophenyl)-2-methylpropanoic acid]",86.2
7,"CCCc1cc(OCc2cc(Cl)cc3c2OC(C)(C)C3)c(F)cc1CCC(=O)O [Example 73, 3-(4-((5-chloro-2,2-dimethyl-2,3-dihydrobenzofuran-7-yl)methoxy)-5-fluoro-2-propylphenyl)propanoic acid]",115
8,"Cc1nc2cccc(COc3c(F)cc(CC(C)C(=O)O)cc3F)c2o1 (stereo not shown) [Example 261, 3-(3,5-difluoro-4-((2-methylbenzo[d]oxazol-7-yl)methoxy)phenyl)-2-methylpropanoic acid]",109
9,"CC1(C)Cc2cc(F)cc(COc3ccc(CCC(=O)O)c(Cl)c3)c2O1 [Example 47, 3-(2-chloro-4-((5-fluoro-2,2-dimethyl-2,3-dihydrobenzofuran-7-yl)methoxy)phenyl)propanoic acid]",111
10,"[2H]C([2H])(Oc1ccc(CC(C)C(=O)O)cc1F)c1cc(F)cc2c1OC(C)(C)C2 (stereo not shown) [Example 230, 3-(4-(dideuterio(5-fluoro-2,2-dimethyl-2,3-dihydrobenzofuran-7-yl)methoxy)-3-fluorophenyl)-2-methylpropanoic acid]",86.2
11,"CC(C)Oc1cc(OCc2cc(Cl)cc3c2OC(C)(C)C3)ccc1CCC(=O)O [Example 116, 3-(4-((5-chloro-2,2-dimethyl-2,3-dihydrobenzofuran-7-yl)methoxy)-2-isopropoxyphenyl)propanoic acid]",146
12,"CC(Cc1ccc(OCc2cc(Cl)cc3c2OC2(CCCC2)C3)cc1)C(=O)O (stereo not shown) [Example 159, 3-(4-((5-chloro-3H-spiro[benzofuran-2,1'-cyclopentane]-7-yl)methoxy)phenyl)-2-methylpropanoic acid]",165
13,"CC(Cc1ccc(OCc2cc(Cl)cc3c2OC(C)(C)C3)c(CN(C)C)c1)C(=O)O (stereo not shown) [Example 88, 3-(4-((5-chloro-2,2-dimethyl-2,3-dihydrobenzofuran-7-yl)methoxy)-3-((dimethylamino)methyl)phenyl)-2-methylpropanoic acid]",119
14,"CC(Cc1ccc(OCc2cc(-c3ccc(Cl)cc3)cc3c2OC(C)(C)C3)cc1)C(=O)O (stereo not shown) [Example 82, 3-(4-((5-(4-chlorophenyl)-2,2-dimethyl-2,3-dihydrobenzofuran-7-yl)methoxy)phenyl)-2-methylpropanoic acid]",24
15,"CCc1cc(OCc2cccc3c2CC(C)(C)O3)ccc1CCC(=O)O [Example 140, 3-(4-((2,2-dimethyl-2,3-dihydrobenzofuran-4-yl)methoxy)-2-ethylphenyl)propanoic acid]",146
16,"CCc1cc(OCc2cc(F)cc3c2OC(C)(C)C3)c(F)cc1CCC(=O)O [Example 220, 3-(2-ethyl-5-fluoro-4-((5-fluoro-2,2-dimethyl-2,3-dihydrobenzofuran-7-yl)methoxy)phenyl)propanoic acid]",116
17,"CC(Cc1ccc(OCc2cc(F)cc3c2OCOC3)cc1)C(=O)O (stereo not shown) [Example 45, 3-(4-((6-fluoro-4H-benzo[d][1,3]dioxin-8-yl)methoxy)phenyl)-2-methylpropanoic acid]",79.6
18,"CC1(C)Cc2c(COc3ccc4c(c3)CC[C@@H]4CC(=O)O)cc(F)cc2O1 [Example 188, (R)-2-(5-((6-fluoro-2,2-dimethyl-2,3-dihydrobenzofuran-4-yl)methoxy)-2,3-dihydro-1H-inden-1-yl)acetic acid]",104
19,"[2H]C([2H])(Oc1ccc(CCC(=O)O)c(CC)c1F)c1cc(F)cc2c1OC(C)(C)C2 [Example 228, 3-(4-(dideuterio(5-fluoro-2,2-dimethyl-2,3-dihydrobenzofuran-7-yl)methoxy)-3-fluoro-2-ethylphenyl)propanoic acid]",119
20,"CC(Cc1ccc(OCc2c(F)ccc3c2CC(C)(C)O3)cc1)C(=O)O (stereo not shown) [Example 96, 3-(4-((5-fluoro-2,2-dimethyl-2,3-dihydrobenzofuran-4-yl)methoxy)phenyl)-2-methylpropanoic acid]",125
21,"Cc1cc(OCc2cc(F)cc3c2OC(C)(C)C3)ccc1CCC(=O)O [Example 46, 3-(4-((5-fluoro-2,2-dimethyl-2,3-dihydrobenzofuran-7-yl)methoxy)-2-methylphenyl)propanoic acid]",114

# Same assay, conditions: HEK293, % activity at 5 µM compared to the maximal activity of GW9508 at 6.7 µM (=100%); HEK293 cells co-expressing Gqi5; read-out: %Activity (GW9508 Reference Compound)
row,SMILES,activity at 5 µM [%]
1,"CC(Cc1ccc(OCc2cc(F)cc3c2OC(C)(C)C3)c(F)c1)C(=O)O (stereo not shown) [Example 8, 3-(3-fluoro-4-((5-fluoro-2,2-dimethyl-2,3-dihydrobenzofuran-7-yl)methoxy)phenyl)-2-methylpropanoic acid]",135
2,"Cc1cc(CC(C)C(=O)O)ccc1OCc1cc(Cl)cc2c1OC(C)(C)C2 (stereo not shown) [Example 11, 3-(4-((5-chloro-2,2-dimethyl-2,3-dihydrobenzofuran-7-yl)methoxy)-3-methylphenyl)-2-methylpropanoic acid]",124

# Same assay, conditions: eight concentrations from 0.00001 to 20 µM; changes (Max-Min) of fluorescence intensity
row,SMILES,EC50 [µM]
1,"CC(Cc1ccc(OCc2cc(Br)cc3c2OC(C)(C)C3)cc1)C(=O)O (stereo not shown) [Example 81, 3-(4-((5-bromo-2,2-dimethyl-2,3-dihydrobenzofuran-7-yl)methoxy)phenyl)-2-methylpropanoic acid]",≤ 1
2,"CC(Cc1ccc(OCc2cc(Cl)cc3c2OC(C)(C)C3O)c(F)c1)C(=O)O (stereo not shown) [Example 80, 3-(4-((5-chloro-3-hydroxy-2,2-dimethyl-2,3-dihydrobenzofuran-7-yl)methoxy)-3-fluorophenyl)-2-methylpropanoic acid]",1 to 10
3,"CC(Cc1ccc(OCc2c(F)c(F)cc3c2OC(C)(C)C3)cc1)C(=O)O (stereo not shown) [Example 43, 3-(4-((5,6-difluoro-2,2-dimethyl-2,3-dihydrobenzofuran-7-yl)methoxy)phenyl)-2-methylpropanoic acid]",> 10
4,"CC(Cc1ccc(OCc2cc(-c3ccc(Cl)cc3)cc3c2OC(C)(C)C3)cc1)C(=O)O (stereo not shown) [Example 82, 3-(4-((5-(4-chlorophenyl)-2,2-dimethyl-2,3-dihydrobenzofuran-7-yl)methoxy)phenyl)-2-methylpropanoic acid]",1 to 10
5,"CC(Cc1ccc(OCc2cc(F)cc3c2OCOC3)cc1)C(=O)O (stereo not shown) [Example 45, 3-(4-((6-fluoro-4H-benzo[d][1,3]dioxin-8-yl)methoxy)phenyl)-2-methylpropanoic acid]",> 10

# System: C57BL/6J mice
# Assay: Intra peritoneal glucose tolerance test (IPGTT)
# Assay type: in vivo
# Details: Mus musculus, 2 h; 30 mg/kg oral gavage 30 min before 2g/kg glucose intra peritoneally; overnight fasted male C57BL/6J mice; incremental AUC of glucose excursion vs vehicle; read-out: % reduction IPGTT at 30mg/kg
# Protocol: 8-10 week old male C57BL/6J mice (Harlan) were maintained on regular chow diet from Harlan (2018 Teklad Global). On the day before the experiment mice were fasted overnight, then randomized into groups (n=10-15) to receive the tested GPR120 agonist at doses ranging from 100mg/kg or the vehicle (1% CMC, 2% TWEEN 80). Compounds were delivered orally via gavage at 10mL/kg. Blood glucose levels were measured by glucometer (Ascensia Elite XL, Bayer) at time -30 minutes before administration of compound. Blood glucose was measured again after 30 minutes (at time 0), and then the mice were dosed intra peritoneally with 2g/kg glucose at 10mL/kg. Blood glucose measurements were taken 20, 40, 60, 90 and 120 minutes after glucose administration, by glucometer (Ascensia Elite XL, Bayer).
# Glucose levels were plotted against time, and the incremental area under the curve (AUC) of the glucose excursion was determined from time 0 using Graphpad Prism 5.01. Outliers were excluded using Tukey's box plot outlier test, and statistical significance of differences in AUC of compound treatment compared to vehicle was determined by non-parametric Kruskal-Wallis test with Dunn's post test.
# The compounds were tested at 30 mg/kg and the levels of blood glucose were determined in the presence and absence of the tested compounds. The percentage of glucose reduction is reported. The tested compounds were selected as Examples from the exemplified compounds. […]
row,SMILES,inhibition in vivo at 30 mg/kg [%]
1,"CC1(C)Cc2cc(Cl)cc(COc3ccc(CCC(=O)O)c4c3CCC4)c2O1 [Example 64, 3-(7-((5-chloro-2,2-dimethyl-2,3-dihydrobenzofuran-7-yl)methoxy)-2,3-dihydro-1H-inden-4-yl)propanoic acid]",24.9
2,"CC1(C)Cc2cc(F)cc(COc3ccc(C4CC4C(=O)O)cc3)c2O1 (racemic) [Example 131 (racemic), 2-(4-((5-fluoro-2,2-dimethyl-2,3-dihydrobenzofuran-7-yl)methoxy)phenyl) cyclopropanecarboxylic acid]",23.1
